# Columns and labels:
# Liver [1] = assay: Drug metabolism in Sprague-Dawley rat assessed as N-[6-(3-Hydroxypropyl)-5,11-dioxo-6,11-dihydro-5Hindeno[1,2-c]isoquinolin-3-yl]acetamide level in liver at 40 mg/kg, po administered 3 days; type: ADME, organism-based; set-up: dose 40 mg/kg, route oral; details: in vivo, 72 h
# Liver microsomes [2] = assay: Drug metabolism in human liver microsomes assessed as formation of 3-Amino 6-(3-aminopropyl)-11-hydroxy-6,11-dihydro-5H-indeno[1,2-c]isoquinolin-5-one at 1 uM preincubated for 10 mins prior to NADPH addition measured 60 mins post NADPH addition; type: ADME, Microsome; details: 1 h
# [3] = Drug metabolism in Sprague-Dawley rat assessed as 6-(3-Hydroxypropyl)-3-amino-5H-indeno[1,2- c]-isoquinoline-5,11(6H)dione level in mammary gland at 40 mg/kg, po administered 3 days; type: ADME, organism-based; set-up: dose 40 mg/kg, route oral; details: in vivo, 72 h
# Serum [4] = assay: Drug metabolism in Sprague-Dawley rat assessed as 3-Amino-6-(3-aminopropyl)-11-hydroxy-6,11-dihydro-5Hindeno[1,2-c]isoquinolin-5-one level in serum at 40 mg/kg, po administered 3 days; type: ADME, organism-based; set-up: dose 40 mg/kg, route oral; details: in vivo, 72 h
# Hepatocyte [5] = assay: Drug metabolism in human hepatocytes assessed as formation of N-[6-(3-Aminopropyl)-5,11-dioxo-6,11-dihydro-5H-indeno-[1,2-c]isoquinolin-3-yl]acetamide at 50 uM after 4 hrs; type: ADME, cell-based
# [6] = Drug metabolism in Sprague-Dawley rat assessed as 3-Amino-6-(3-aminopropyl)-11-hydroxy-6,11-dihydro-5Hindeno[1,2-c]isoquinolin-5-one level in mammary gland at 40 mg/kg, po administered 3 days; type: ADME, organism-based; set-up: dose 40 mg/kg, route oral; details: in vivo, 72 h
# Liver [7] = assay: Drug metabolism in Sprague-Dawley rat assessed as 3-Amino-11-hydroxy-6-(3-hydroxypropyl)-6,11-dihydro-5Hindeno[1,2-c]isoquinolin-5-one level in liver at 40 mg/kg, po administered 3 days; type: ADME, organism-based; set-up: dose 40 mg/kg, route oral; details: in vivo, 72 h
# Hepatocyte [8] = assay: Drug metabolism in human hepatocytes assessed as formation of 3-Amino-11-hydroxy-6-(3-hydroxypropyl)-6,11-dihydro-5H-5Hindeno[1,2-c]isoquinolin-5-one at 50 uM after 4 hrs; type: ADME, cell-based
# Hepatocyte [9] = assay: Drug metabolism in human hepatocytes assessed as formation of N-[6-(3-Aminopropyl)-11-hydroxy-5-oxo-6,11-dihydro-5H-5Hindeno[ 1,2-c]isoquinolin-3-yl]acetamide at 50 uM after 4 hrs; type: ADME, cell-based
# [10] = Drug metabolism in Sprague-Dawley rat assessed as N-[6-(3-Hydroxypropyl)-5,11-dioxo-6,11-dihydro-5Hindeno[1,2-c]isoquinolin-3-yl]acetamide level in mammary gland at 40 mg/kg, po administered 3 days; type: ADME, organism-based; set-up: dose 40 mg/kg, route oral; details: in vivo, 72 h
# Plasma = details: human, 10 µM
# Description: Plasma protein binding in human plasma at 10 uM
# Liver microsomes [11] = assay: Drug metabolism in human liver microsomes assessed as formation of 6-(3-hydroxypropyl)-3-amino-5H-indeno[1,2-c]-isoquinoline-5,11(6H)-dione at 1 uM preincubated for 10 mins prior to NADPH addition measured 60 mins post NADPH addition; type: ADME, Microsome; details: 1 h
# [12] = Drug metabolism in Sprague-Dawley rat assessed as parent compound level in mammary gland at 40 mg/kg, po administered 3 days; type: ADME, organism-based; set-up: dose 40 mg/kg, route oral; details: read-out: Drug metabolism
# Serum [13] = assay: Drug metabolism in Sprague-Dawley rat assessed as N-[6-(3-Aminopropyl)-5,11-dioxo-6,11-dihydro-5H-indeno- [1,2-c]isoquinolin-3-yl]acetamide level in serum at 40 mg/kg, po administered 3 days; type: ADME, organism-based; set-up: dose 40 mg/kg, route oral; details: in vivo, 72 h
# Liver microsomes [14] = assay: Metabolic stability in human liver microsomes assessed as GSH conjugate formation at 10 uM; type: ADME, Microsome
# [15] = Drug metabolism in Sprague-Dawley rat assessed as parent compound level in liver at 40 mg/kg, po administered 3 days; type: ADME, organism-based; set-up: dose 40 mg/kg, route oral; details: read-out: Drug metabolism
# Liver [16] = assay: Drug metabolism in Sprague-Dawley rat assessed as N-[6-(3-Aminopropyl)-5,11-dioxo-6,11-dihydro-5H-indeno- [1,2-c]isoquinolin-3-yl]acetamide level in liver at 40 mg/kg, po administered 3 days; type: ADME, organism-based; set-up: dose 40 mg/kg, route oral; details: in vivo, 72 h
# Hepatocyte [17] = assay: Drug metabolism in human hepatocytes assessed as formation of N-[6-(3-Hydroxypropyl)-5,11-dioxo-6,11-dihydro-5H-5Hindeno[ 1,2-c]isoquinolin 3-yl]acetamide at 50 uM after 4 hrs; type: ADME, cell-based
# Serum [18] = assay: Drug metabolism in Sprague-Dawley rat assessed as 3-Amino-11-hydroxy-6-(3-hydroxypropyl)-6,11-dihydro-5Hindeno[1,2-c]isoquinolin-5-one level in serum at 40 mg/kg, po administered 3 days; type: ADME, organism-based; set-up: dose 40 mg/kg, route oral; details: in vivo, 72 h
# [19] = Inhibition of TNFalpha-induced human NFkappaB activity in HEK293 cells incubated for 6 hrs followed by compound wash out measured after 5 mins by luciferase assay; type: cell-based
# Hepatocyte [20] = assay: Drug metabolism in human hepatocytes assessed as formation of 6-(3-Hydroxypropyl)-3-amino 5H-indeno[1,2c]-isoquinoline-5,11(6H)dione at 50 uM after 4 hrs; type: ADME, cell-based
# Liver microsomes [21] = assay: Drug metabolism in human liver microsomes assessed as formation of 6-(3-hydroxypropyl)-3-amino-5H-indeno[1,2-c]-isoquinoline-5,11(6H)-dione at 1 uM after 60 mins in presence of NADPH and monoamine oxidase inhibitors clorgiline, pargyline; type: ADME, Microsome; details: 1 h
# Hepatocyte [22] = assay: Drug metabolism in human hepatocytes assessed as formation of 3-Amino 6-(3-aminopropyl)-11-hydroxy-6,11-dihydro-5H-indeno[1,2-c]isoquinolin-5-one at 50 uM after 4 hrs; type: ADME, cell-based
# [23] = target: T1, Retinoic acid receptor RXR-alpha (Homo sapiens, UniProt P19793); assay: Agonist activity at human RXRalpha expressed in african green monkey COS1 cells assessed as induction of RXRE transcriptional activity after 12 hrs by luciferase reporter gene assay; type: functional, cell-based, COS-1
# T1 sequence (P19793 whole entry): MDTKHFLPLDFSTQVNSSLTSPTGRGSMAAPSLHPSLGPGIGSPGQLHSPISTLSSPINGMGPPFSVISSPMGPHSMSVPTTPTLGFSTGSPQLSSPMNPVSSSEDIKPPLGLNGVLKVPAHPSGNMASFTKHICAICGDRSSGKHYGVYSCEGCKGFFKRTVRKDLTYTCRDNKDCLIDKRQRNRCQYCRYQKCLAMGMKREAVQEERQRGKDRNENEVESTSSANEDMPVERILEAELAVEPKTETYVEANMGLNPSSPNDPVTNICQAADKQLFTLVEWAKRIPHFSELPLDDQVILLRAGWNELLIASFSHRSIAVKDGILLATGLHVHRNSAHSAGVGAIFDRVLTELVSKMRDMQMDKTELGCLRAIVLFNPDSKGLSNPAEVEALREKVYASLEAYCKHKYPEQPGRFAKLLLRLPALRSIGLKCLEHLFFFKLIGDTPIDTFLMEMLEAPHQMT
# Liver [24] = assay: Drug metabolism in Sprague-Dawley rat assessed as 6-(3-Hydroxypropyl)-3-amino-5H-indeno[1,2- c]-isoquinoline-5,11(6H)dione level in liver at 40 mg/kg, po administered 3 days; type: ADME, organism-based; set-up: dose 40 mg/kg, route oral; details: in vivo, 72 h
# Serum [25] = assay: Drug metabolism in Sprague-Dawley rat assessed as 6-(3-Hydroxypropyl)-3-amino-5H-indeno[1,2- c]-isoquinoline-5,11(6H)dione level in serum at 40 mg/kg, po administered 3 days; type: ADME, organism-based; set-up: dose 40 mg/kg, route oral; details: in vivo, 72 h
# [26] = Drug metabolism in Sprague-Dawley rat assessed as 3-Amino-11-hydroxy-6-(3-hydroxypropyl)-6,11-dihydro-5Hindeno[1,2-c]isoquinolin-5-one level in mammary gland at 40 mg/kg, po administered 3 days; type: ADME, organism-based; set-up: dose 40 mg/kg, route oral; details: in vivo, 72 h
# Serum [27] = assay: Drug metabolism in Sprague-Dawley rat assessed as N-[6-(3-Hydroxypropyl)-5,11-dioxo-6,11-dihydro-5Hindeno[1,2-c]isoquinolin-3-yl]acetamide level in serum at 40 mg/kg, po administered 3 days; type: ADME, organism-based; set-up: dose 40 mg/kg, route oral; details: in vivo, 72 h
# Hepatocyte [28] = assay: Drug metabolism in human hepatocytes assessed as formation of 6-(3-aminopropyl)-3-((2R,3R,4S,5S,6R)-3,4,5-trihydroxy-6-(hydroxymethyl)tetrahydro-2H-pyran-2-ylamino)-5H-indeno[1,2-c]isoquinoline-5,11(6H)-dione at 50 uM after 4 hrs; type: ADME, cell-based
# [29] = Cytotoxicity against african green monkey COS1 cells assessed as cell survival at 50 uM relative to control; type: cell-based; details: chlorocebus aethiops, COS-1 cells; read-out: Survival
# [30] = Drug metabolism in Sprague-Dawley rat assessed as N-[6-(3-Aminopropyl)-5,11-dioxo-6,11-dihydro-5H-indeno- [1,2-c]isoquinolin-3-yl]acetamide level in mammary gland at 40 mg/kg, po administered 3 days; type: ADME, organism-based; set-up: dose 40 mg/kg, route oral; details: in vivo, 72 h
# HEK293 = assay: Inhibition of TNFalpha-induced human NFkappaB activity in HEK293 cells at 50 uM incubated for 6 hrs followed by compound wash out measured after 5 mins by luciferase assay; type: cell-based
# [31] = Drug metabolism in Sprague-Dawley rat assessed as parent compound level in serum at 40 mg/kg, po administered 3 days; type: ADME, organism-based; set-up: dose 40 mg/kg, route oral; details: read-out: Drug metabolism
# Liver [32] = assay: Drug metabolism in Sprague-Dawley rat assessed as 3-Amino-6-(3-aminopropyl)-11-hydroxy-6,11-dihydro-5Hindeno[1,2-c]isoquinolin-5-one level in liver at 40 mg/kg, po administered 3 days; type: ADME, organism-based; set-up: dose 40 mg/kg, route oral; details: in vivo, 72 h
# [33] = Cytotoxicity against human HEK293 cells assessed as cell survival at 50 uM relative to control; type: cell-based; details: read-out: Survival
# Liver microsomes [34] = assay: Half life in human liver microsomes at 1 uM; type: ADME, Microsome
compound,measurement,setting,value
NCCCn1c2c(c3ccc(N)cc3c1=O)C(=O)c1ccccc1-2,Drug metabolism,Liver [1],Active
same,Drug metabolism,Liver microsomes [2],Active
same,Drug metabolism,[3],Not Active
same,Drug metabolism,Serum [4],Not Active
same,Drug metabolism,Hepatocyte [5],Active
same,Drug metabolism,[6],Not Active
same,Drug metabolism,Liver [7],Active
same,Drug metabolism,Hepatocyte [8],Active
same,Drug metabolism,Hepatocyte [9],Active
same,Drug metabolism,[10],Not Active
same,PPB,Plasma,75%
same,Drug metabolism,Liver microsomes [11],Active
same,concentration at 72 h,[12],300 ng/g
same,Drug metabolism,Serum [13],Active
same,Stability,Liver microsomes [14],Stable
same,concentration at 72 h,[15],4300 ng/g
same,Drug metabolism,Liver [16],Active
same,Drug metabolism,Hepatocyte [17],Active
same,Drug metabolism,Serum [18],Not Active
same,IC50,[19],26.3 µM
same,Drug metabolism,Hepatocyte [20],Active
same,Drug metabolism,Liver microsomes [21],Active
same,Drug metabolism,Hepatocyte [22],Active
same,EC50,[23],3.37 µM
same,Drug metabolism,Liver [24],Active
same,Drug metabolism,Serum [25],Not Active
same,Drug metabolism,[26],Not Active
same,Drug metabolism,Serum [27],Not Active
same,Drug metabolism,Hepatocyte [28],Active
same,viability at 50 µM,[29],58.6%
same,Drug metabolism,[30],Not Active
same,inhibition,HEK293,84.9%
same,concentration at 72 h,[31],800 ng/mL
same,Drug metabolism,Liver [32],Active
same,viability at 50 µM,[33],109%
same,t1/2,Liver microsomes [34],2.17 h
